From patent US6716596B2, “Agents for replacement of NAD+/NADH system in enzymatic reactions” (The Regents of the University of California, priority 2001, dated 2004)
Structures can show the parent of a compound that is named as a salt.

How the values were obtained:
[1] = regioselective reduction of biomimics with catalyst precursor (2) and sodium formate, followed by 1H NMR; settings: disappearance of pyridinium signals vs [(CH3)4N]OTf during first 2 hours; compound (1a) set to 1.0
Procedure: The relative rates, seen tabulated in FIG. 1C, were determined by observing disappearance of the pyridinium signals versus an internal standard, [(CH3)4N]OTf (tetramethylammonium triflate), during the first 2 hours, where the relative rate of 1-benzylnicotinamide triflate (1) was set to 1.0. The turnover frequencies were calculated by the formation of mmol of product/mmol of catalyst/hour. The total turnover number in 24 hours was ˜95 for all substrates that gave product. The reactions were conducted in presilylated J. Young NMR tubes and were followed by ^1H NMR.
The electronic effect of differently substituted nicotinamide substrates was determined by their relative rates. The relative rates of these compounds were determined by observing the disappearance of the pyridinium signals compared to interval standard, [(CH3)4N]OTf, during the first 2 hours, where the relative rate of compound (1a) was 1.0.
In a typical reaction, a J. Young NMR tube was charged, biomimic substrates (1a)-(1i) (1.0 mol), 2 (1% mol), and HCO2Na (1.1 mol) used as the hydride source and a Schlenk techniques were conducted to deoxygenate the solid mixture. A diluted solvent was added to these solids for compounds (1a)-(1i), the solvent was D2O-THF-d8 (1=1 0.75 mL, deoxygenated), and the NMR tube was placed in a liquid nitrogen bath. The contents were further degassed by two successive freeze-pump-thaw cycles. After thawing out the reaction mixture, the J. Young NMR tube was immediately put in a salted ice-bath and covered with aluminum foil. The reaction was then followed by ^1H NMR spectroscopy at 26° C. temperature, after a speedy thawing out.
The given relative rates and turnover frequencies were determined by decreasing integration of the corresponding pyridinium salts measured against an internal standard, (CH3)4N(OTf), during the first 2 h of the reaction. The ratios of the 1,4- and 1,6-dihydronicotinamide derivatives of compounds (1a), (1b) and (1d)-(1g) were obtained by comparison of the resonance signals with those of authentic samples, where the diagnostic signal is the resonance for —CH2Ph moiety which can be identified unambiguously in the ^1H NMR spectrum.

[2] = UV-vis kinetics of the regioselective reduction with rhodium catalyst precursor (2) and formate; settings: for kcat rate constant for catalysis / r1 initial rate: [2] 2.725 × 10^−5 M, 299° K
Excerpt: The kinetics of the regioselective reduction reactions were further studied utilizing UV-vis techniques with the two biomimic compounds (1) and (6) and the results were compared to NAD^+ itself. Experimental conditions are described in Example 9.
The effect of the initial rate (ri) at low conversions to the 1,4-dihydro product (˜10%) was ascertained by varying the amount of substrate precatalyst (2) and sodium formate concentrations.
The initial rates (ri) of formation of compound (3) were obtained from plots of concentration (absorbance at 354 nm/ε) versus time at low conversions (˜10%). The values of kcat were calculated at 299° K.
Rates were obtained via UV-vis techniques and are an average of two runs.
This example describes studies producing kinetic and thermodynamic data for 1-benzylnicotinamide triflate (1a) performed in THF/H2O, 1:1, β-nicotinamide -5′-ribose methyl phosphate (6) H2O, pH=6.5, and NAD^+ performed in the regioselective reduction with [Cp*Rh(bpy)H2O)][OTf]2, 2 and in the presence of formate ion.
The kinetic experiments were carried out on a Hewlett Packard 8452A Diode Array Uv-Vis spectrophotometer, attached to a circulating water bath (VWR 1160). For experiments conducted at different temperatures, the circulating water bath, as well as the UV-vis instrument, were warmed up for at least an 1 hour before the kinic studies were initiated.
The 1-benzylnicotinamide triflate (1a) [CP*Rh(bpy)(H2O)][OTf]2 (2) and 1-benzyl-1,4 dihydronicotinamide (3) were synthesized by methods as described in Examples 2, 4 and 7. The NAD^+ and 1,4-NADH compounds were purchased from Sigma and used as received. The THF was distilled from Na and deoxygenate with N2 gas for 1 hour. Distilled water was purchased from Aldrich Chemical Co and deoxygenate prior to being used. A solution of THF/H2O (similar for 1:1 or 1:4 ratios) was used for all the kinetic experiments performed for compounds of 1-benzylnicotinamide type, unless otherwise specified. A stock solution of biomimic (1a) (0.018 M), 2 (6.23×10^−3 M), and sodium formate (0.25 M) were made for the kinetic experiments in THF/H2O (1:1).
A solution of 1-benzylnicotinamide triflate (1a), (4.29×10^−3 M) and sodium formate (0.0539) was made in a volumetric flask (10 mL) under N2 in a THF/H2O (1:1) mixture. The different concentration of biomimic (1a) and sodium formate used for the kinetic experiments are reported above.
A 3.0 mL aliquot of this solution was transferred to a thermostated UV-vis cell by using an air-free syringe, which was also purged with N2 gas. The sample was then brought to the desired temperature for 30-60 min in the UV-vis spectrophotometer thermostated cell holder. Then, 23 μL of a 6.23×10^−3 M stock solution of [CP*Rh(bpy)(H2O)^2+ (2), was added-by syringe under a positive N2 pressure, quickly mixed with the solution, and the absorbance increase at 354 nm was immediately recorded. The experiment was carried out for 2 hours and the formation of the product, 1-benzyl-1,4-dihydronicotinamide, (3) was followed, with the change in absorbance being recorded every 90 seconds. Some kinetic experiments were carried out until all the starting material was converted to product. The induced volume change was taken into account for the calculation of the turnover frequency (TOF).
The kinetic experiments for the β-nicotinamide-5′-ribose methyl phosphate (6) and natural NAD^+ were performed using the same general procedure described above. These kinetic experiments were carried out in H2O and the concentration of β-nicotinamide-5′-ribose methyl phosphate (6) or NAD^+, sodium formate, and [Cp*Rh(bpy)(H2O)]^2+ (2), were in the order of 1.50×10^−3, 0.0186 M, and 1.42×10^−5 M, respectively. The λmax for the β-nicotinamide-5′-ribose methyl phosphate, (6), and natural NAD^+ was 336 nm. In all the initial rate plots, time =0 s was removed from the plots of Concentration versus Time. The standard deviation of the ri were calculated from 2σ values.

[3] = stability observations (light, air, solvent); type: physicochemical
[4] = [1a] 1.07 × 10^−3 M, HCO2Na 0.03266 M, 1:1 H2O/THF
[5] = [1a] 1.61 × 10^−3 M, HCO2Na 0.03260 M, 1:1 H2O/THF
[6] = [1a] 2.68 × 10^−3 M, HCO2Na 0.03266 M, 1:1 H2O/THF
[7] = [1a] 2.68 × 10^−4 M, HCO2Na 0.03266 M, 1:1 H2O/THF
[8] = [1a] 5.37 × 10^−4 M, HCO2Na 0.03259 M, 1:1 H2O/THF

NC(=O)c1ccc[n+](Cc2ccccc2)c1 [Compound 1a, 1-Benzylnicotinamide, Triflate Salt]
relative rate of regioselective reduction [1]: 1.0 | TOF ([2]; 294° K, 1:1 H2O/THF, substrate 4.29 × 10^−3 M): 2 h⁻¹ | ri initial rate ([2]; 294° K, 1:1 H2O/THF, substrate 4.29 × 10^−3 M, HCO2Na 5.39 × 10^−2 M, (2) 4.33 × 10^−5 M): 1.23e-08 M/s | TOF ([2]; H2O/THF 1:1, 1a 4.29 × 10^−3 M): 2 h⁻¹ | ri initial rate ([2]; H2O/THF 1:1, 1a 4.29 × 10^−3 M, HCO2Na 5.39 × 10^−2 M, (2) 4.33 × 10^−5 M): 1.23e-08 M/s | TOF ([2]; H2O/THF 4:1, 1a 1.68 × 10^−3 M): 10 h⁻¹ | ri initial rate ([2]; H2O/THF 4:1, 1a 1.68 × 10^−3 M, HCO2Na 1.79 × 10^−3 M, (2) 1.71 × 10^−5 M): 4.31e-08 M/s | TOF ([2]; H2O/THF 4:1, 1a 4.82 × 10^−3 M): 13 h⁻¹ | ri initial rate ([2]; H2O/THF 4:1, 1a 4.82 × 10^−3 M, HCO2Na 5.52 × 10^−2 M, (2) 4.83 × 10^−5 M): 1.75e-07 M/s | increase in initial rate of formation of the 1,4-dihydro derivative (3a), factor ([2]; THF/H2O from 1:1 to 1:4, comparable concentrations): > 6 | kcat rate constant for catalysis [2, 4]: 12.61 M^−2s^−1 | r1 initial rate [2, 4]: 1.2e-08 M/s | kcat rate constant for catalysis [2, 5]: 14.03 M^−2s^−1 | r1 initial rate [2, 5]: 2.01e-08 M/s | kcat rate constant for catalysis [2, 6]: 14.38 M^−2s^−1 | r1 initial rate [2, 6]: 3.43e-08 M/s | kcat rate constant for catalysis [2, 7]: 8.85 M^−2s^−1 | r1 initial rate [2, 7]: 2.1e-09 M/s | kcat rate constant for catalysis [2, 8]: 13.02 M^−2s^−1 | r1 initial rate [2, 8]: 6.3e-09 M/s | stability [3]: more stable in acqueous/organic solvent
